Measured values taken from article PMC11784145, “Efficacy and in vitro pharmacological assessment of novel N-hydroxypyridinediones as hepatitis B virus ribonuclease H inhibitors” (Antimicrobial Agents and Chemotherapy, 2024).
Where “and” joins values, the source holds several entries; their conditions need not be identical. Equal entries are not always repeated.

Assays:
[1] = system: HBV replication (HBV plus-polarity DNA strand); assay: HBV replication inhibition, strand preferential qPCR in hepDES19 cells; assay type: cell-based, hepatitis B virus; settings: for EC50: 72 h exposure, HBV plus-polarity strand suppression, highest concentration tested 100 µM, mean ± SD, read-out: HepDES19 EC50
Experimental: HBV replication inhibition was measured in hepDES19 cells following 72 h compound exposure without compound replenishment. EC50 values were determined by HBV plus-polarity strand suppression using a strand preferential qPCR assay, as described previously ([28]). Three or more replicate values were obtained on different days.

[2] = Solubility limit, turbidimetric assay; assay type: physicochemical; settings: upper limit 200 µM
Experimental: Solubility limits were determined by a turbidimetric assay, as described ([27]), with the solubility limit being defined as the compound concentration where light scattering began to rise. Two or more replicate assays were performed for each compound at each pH on different days.

[3] = Parallel artificial membrane permeability assay (PAMPA); assay type: in vitro ADME
Experimental: Compound Papp values were determined by normalizing the experimental compound absorbance to the compounds’ absorbances at equilibrium, membrane porosity, buffer volume, and time (s). Two or more replicate assays were obtained on separate days for each pH.

MDCK-MDR1 cells = assay: MDCK-MDR1 permeability assay; assay type: in vitro ADME; settings: 10 µM compound, 2 h; for Efflux Ratio (Papp B-A/A-B): MDCK-MDR1 cells, actively effluxed if >2
Experimental: MDCK-MDR1 cells were seeded on 96-well, high protein binding immobilon-P membrane plates (Millipore Sigma) at 2.4 × 10^4 cells per well for 4 days. Media were then decanted, and the cells were equilibrated with Hanks balanced salt solution (HBSS) supplemented with 10 mM CaCl2 and 1 mM MgCl2 for 1 h. Compound (10 µM) was then added to the apical side to assess active transport and to the basolateral side to assess active efflux. The cells were incubated with compound for 2 h with shaking at 37°C. Samples (50 µL) were retrieved from the recipient wells and mixed with 150 µL acetonitrile (ACN) and internal standard (1:1 of 200 ng/mL chloridazon:enalapril). Samples were pelleted at 4,000 × g and the supernatant was analyzed by liquid-chromatography/tandem mass spectrometry (LCMS/MS) analyses. […]. Active efflux was determined by Papp B/A/Papp A/B.
Tight junction formation was assessed by lucifer yellow permeation immediately following sample retrieval. Briefly, lucifer yellow (10 µM) was added to the apical wells and HBSS was added to the basolateral wells for 1 h with shaking at 37°C, after which sample was collected from the basolateral side and read on a Biotek Synergy HTX multi-mode plate reader with 485/20 excitation and 520/20 emission filters defined by the Center Wavelength/band-pass values. The percent lucifer yellow fluorescence was determined by subtracting the HBSS relative fluorescent units (RFU) from the sample RFU and normalizing to the lucifer yellow positive control RFU. Lucifer yellow permeation was determined to be acceptable if ≤3%.

[4] = molecular target: T1, human ribonuclease H1 (huRNase H1) (Homo sapiens, UniProt O60930); assay: Human RNase H1 inhibition, fluorescent biochemical assay
T1 construct: made in house; host or cells: Escherichia coli
T1 sequence (O60930 1-286): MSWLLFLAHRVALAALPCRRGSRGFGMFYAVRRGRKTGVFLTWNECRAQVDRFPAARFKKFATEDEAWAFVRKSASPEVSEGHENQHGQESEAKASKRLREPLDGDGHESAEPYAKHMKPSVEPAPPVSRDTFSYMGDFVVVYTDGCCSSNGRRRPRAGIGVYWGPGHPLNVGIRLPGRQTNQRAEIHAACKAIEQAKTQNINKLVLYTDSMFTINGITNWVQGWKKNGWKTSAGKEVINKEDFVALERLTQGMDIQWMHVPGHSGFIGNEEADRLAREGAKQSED
Experimental: Recombinant human ribonuclease H1 (huRNase H1) was expressed in Escherichia coli and purified by nickel affinity chromatography, as described previously ([30]). […] The heteroduplex substrate was prepared, as described by Ponzar et al. ([30]). Reactions were initiated by the addition of MgCl2 (5 mM final) and were performed on a Biotek Synergy HTX multi-mode plate reader at 28°C.
Maximum rates of fluorescence increase were calculated using the Biotek Gen5 v3.15 software and percentage activity was determined for each compound concentration by subtracting rates from no enzyme reactions and normalizing to DMSO reactions. […] Reactions were performed at least three times on separate days.

Microsome stability = assay type: in vitro ADME, human
plasma proteins = assay: Plasma protein binding, rapid equilibrium dialysis; assay type: in vitro ADME, bovine; settings: 10 µM compound, DMEM-F12 with 10% FBS (0.25 mg/mL BSA), 4 h, 37°C
Experimental: Plasma protein binding was performed using the Pierce rapid equilibrium dialysis device (Thermo Fisher) per the manufacturer’s instructions, as described ([27]). Briefly, the sample wells contained DMEM-F12 supplemented with 10% FBS spiked with 10 µM compound, and the buffer wells contained phosphate-buffered saline (PBS). The plate was incubated for 4 h at 37°C with shaking, after which 50 µL was retrieved from the buffer and sample wells and added to ice-cold acetonitrile and the internal standard described above. Samples were matrix-matched with PBS supplemented with 10% FBS or PBS alone, respectively, and centrifuged at 4,000 × g for 5 min to pellet plasma proteins. The supernatants were analyzed by LCMS/MS and percent compound bound was determined, as described previously ([27]).

HepDES19 cells = settings: read-out: HepDES19 CC50; 72 h, MTS; highest concentration tested 100 µM; mean ± SD
CYP3A4 mRNA expression = assay: CYP3A4 induction, RT-qPCR in HepG2 cells; settings: 10 µM, 24 or 48 h, normalized to GAPDH and DMSO
Experimental: HepG2 cells were seeded on 12-well, tissue-culture-treated plates (Sarstedt) at 2.5 × 10^5 cells/well for 24 h. Cells were treated with 10 µM compound or 1% DMSO for 48 h with replenishment at 24 h. Cells were rinsed with PBS and lysed at 0, 24, and 48 h using TRI Reagent (Sigma Aldrich). […] Cellular DNA was degraded using DNase I (Invitrogen), according to the manufacturer’s instructions.
Complementary DNA (cDNA) synthesis employed the ProtoScript II First Strand cDNA Synthesis Kit (New England Biolabs) according to the manufacturer’s instructions with an additional incubation step at 25°C for 5 min. Reverse transcriptase-qPCR (RT-qPCR) was performed using a Quantstudio 5 (Thermo Fisher) in a final reaction volume of 20 µL with 4 µL cDNA template, 2× KAPA probe force master mix (Roche), 300 nM probe, and 100 nM forward and reverse primer. CYP3A4 expression was determined by normalizing the experimental sample cycle threshold values to DMSO-treated wells. GAPDH was used as a housekeeping gene.

CYP3A4 = molecular target: T2, CYP3A4 (Homo sapiens, UniProt P08684); assay: Cytochrome P450 inhibition, Vivid 3A4 DBOMF Green kit; assay type: in vitro ADME; settings: 10 µM compound
T2 construct: purchased Thermo Fisher Vivid 3A4 DBOMF Green
T2 sequence (P08684 whole entry): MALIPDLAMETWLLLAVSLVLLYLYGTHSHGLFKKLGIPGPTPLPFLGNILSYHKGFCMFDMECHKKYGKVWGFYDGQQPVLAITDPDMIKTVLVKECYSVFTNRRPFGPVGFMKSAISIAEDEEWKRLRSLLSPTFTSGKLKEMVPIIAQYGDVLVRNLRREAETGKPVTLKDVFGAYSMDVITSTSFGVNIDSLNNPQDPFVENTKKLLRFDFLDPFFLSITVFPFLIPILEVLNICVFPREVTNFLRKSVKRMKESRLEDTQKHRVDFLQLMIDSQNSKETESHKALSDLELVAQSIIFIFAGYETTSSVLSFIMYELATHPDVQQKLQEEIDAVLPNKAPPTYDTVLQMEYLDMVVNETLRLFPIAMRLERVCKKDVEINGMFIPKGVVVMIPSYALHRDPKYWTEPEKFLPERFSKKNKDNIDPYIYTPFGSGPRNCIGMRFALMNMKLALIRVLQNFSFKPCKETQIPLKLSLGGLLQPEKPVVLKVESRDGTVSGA
Experimental: (§1) Compound inhibition of Cytochrome P (CYP) 3A4, 2C9, and 2D6 was determined using Vivid CYP450 screening kits (Thermo Fisher) according to the manufacturer’s instructions, as described previously ([27]). The kits employed were: Vivid 3A4 DBOMF Green, 2C9 BOMF Green, and 2D6 EOMCC Blue. Reactions were initiated by addition of the fluorophore-conjugated substrates with Vivid NADP^+ and were conducted at 37°C using either a Biotek Synergy HTX multi-mode plate reader with 485/20 nm excitation and 520/20 nm emission filters (green-fluorescent substrate), or a Tecan Spark plate reader with monochromator settings at 415/20 nm excitation and 460/20 nm emission (blue-fluorescent substrate) defined by the Center Wavelength/band-pass values. Substrate cleavage was detected every 60 s.
(§2) Compounds were initially screened against each enzyme at 10 µM and maximum rates of fluorescence in RFU were calculated using the Biotek Gen5 v3.11 software. Percent inhibition of experimental compound reactions was normalized to the rate to DMSO vehicle reactions. Positive controls used were: CYP3A4—ketoconazole (Sigma Aldrich), CYP2C9—sulfaphenazole (Cayman Chemical), and CYP2D6—quinidine (Fisher Scientific). […] IC50 values were determined using the four-parameter log[inhibitor] versus response algorithm in GraphPad Prism. […]

CYP2C9 = molecular target: T3, CYP2C9 (Homo sapiens, UniProt P11712); assay: Cytochrome P450 inhibition, Vivid 2C9 BOMF Green kit; assay type: in vitro ADME; settings: 10 µM compound
T3 construct: purchased Thermo Fisher Vivid 2C9 BOMF Green
T3 sequence (P11712 whole entry): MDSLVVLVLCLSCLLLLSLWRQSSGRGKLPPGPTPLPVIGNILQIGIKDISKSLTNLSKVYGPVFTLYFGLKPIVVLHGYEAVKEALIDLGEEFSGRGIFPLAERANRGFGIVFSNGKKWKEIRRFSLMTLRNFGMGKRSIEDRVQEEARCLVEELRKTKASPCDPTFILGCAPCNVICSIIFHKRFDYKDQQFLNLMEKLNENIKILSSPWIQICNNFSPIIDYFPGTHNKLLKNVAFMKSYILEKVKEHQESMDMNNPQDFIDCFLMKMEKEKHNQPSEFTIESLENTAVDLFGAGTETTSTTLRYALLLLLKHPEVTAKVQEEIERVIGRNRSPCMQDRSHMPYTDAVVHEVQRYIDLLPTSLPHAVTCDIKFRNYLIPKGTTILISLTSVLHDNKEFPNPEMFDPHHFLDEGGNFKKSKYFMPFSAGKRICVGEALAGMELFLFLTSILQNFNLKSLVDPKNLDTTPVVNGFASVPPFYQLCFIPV
Experimental: as §1, §2

[5] = pH 5 (fed simulated intestinal fluid)
[6] = pH 6.5 (fasted simulated intestinal fluid)
[7] = human liver microsomes, 1 µM compound, 30 min, NADPH

| SMILES | HepDES19 SI (CC50/EC50) [1] | EC50 [1] [µM] | Average Sol (solubility limit) [2, 5] [µM] | Sol 1 (solubility limit) ([2]; pH 5, replicate 1) [µM] | Sol 2 (solubility limit) ([2]; pH 5, replicate 2) [µM] | Average Sol (solubility limit) [2, 6] [µM] | Sol 1 (solubility limit) ([2]; pH 6.5, replicate 1) [µM] | Sol 2 (solubility limit) ([2]; pH 6.5, replicate 2) [µM] | Average Sol (solubility limit) ([2]; pH 7.4 (DMEM-F12 with 10% FBS)) [µM] | Sol 1 (solubility limit) ([2]; pH 7.4, replicate 1) [µM] | Sol 2 (solubility limit) ([2]; pH 7.4, replicate 2) [µM] | Avg Papp (PAMPA) ([3]; FeSSIF pH 5) [×10⁻⁶ cm/s] | Interpretation (PAMPA Papp) ([3]; FeSSIF pH 5) | Papp 1 (PAMPA) ([3]; FeSSIF pH 5, replicate 1) [×10⁻⁶ cm/s] | Papp 2 (PAMPA) ([3]; FeSSIF pH 5, replicate 2) [×10⁻⁶ cm/s] | Avg Papp (PAMPA) ([3]; pH 7.4) [×10⁻⁶ cm/s] | Interpretation (PAMPA Papp) ([3]; pH 7.4) | Papp 2 (PAMPA) ([3]; pH 7.4, replicate 2) [×10⁻⁶ cm/s] | Efflux Ratio (Papp B-A/A-B) (MDCK-MDR1 cells) | CC50 (HepDES19 cells) [µM] | also measured |
| --- | --- | --- | --- | --- | --- | --- | --- | --- | --- | --- | --- | --- | --- | --- | --- | --- | --- | --- | --- | --- | --- |
| CC(=NOCc1cccc(C)c1)c1c(C)cc(=O)n(O)c1O [Compound 1620] | 526 | 0.19 ± 0.087 | > 200 | > 200 | > 200 | > 200 | > 200 | > 200 | > 200 | > 200 | > 200 | 18.9 | H (H: Papp > 1*10-6) | 22.9 | 14.9 | 1.38 | H (H: Papp > 1*10-6) | 1.38 | 1.39 | > 100 | Papp 1 (PAMPA) ([3]; pH 7.4, replicate 1): 1.38 ×10⁻⁶ cm/s; MDCK-MDR1 Papp category, apical to basolateral (A-B) (MDCK-MDR1 cells): high (high (≥1*10^−6 cm/s)); MDCK-MDR1 Papp category, basolateral to apical (B-A) (MDCK-MDR1 cells): high (high (≥1*10^−6 cm/s)); Selectivity of HBV replication inhibition over huRNase H1 (huRNase H1 IC50 versus HBV EC50) [4]: at least 10 fold; Intrinsic clearance (Clint) rate category (Microsome stability; human liver microsomes): low (low Clint (µL/min/mg protein) rates (<8.6)); Clearance (intrinsic clearance, Clint) (Microsome stability; [7]): 7.00 µL/min/mg; Half-life (Microsome stability; [7]): >30 min; Percent bound (plasma proteins): 85.8 ± 13.2%; CYP3A4 mRNA expression increase (CYP3A4 mRNA expression): < 2 fold |
| CC(=NOCc1ccc(OCc2ccc3ccccc3c2)cc1)c1c(C)cc(=O)n(O)c1O [Compound 1899] | 40.7 | 1.92 ± 0.7 | > 200 | > 200 | > 200 | > 200 | > 200 | > 200 | > 200 | > 200 | > 200 | 5.61 | H (H: Papp > 1*10-6) | 6.93 | 4.29 | 1.84 | H (H: Papp > 1*10-6) | 1.08 | 2.28 and > 2 | 68.6 ± 24.3 | Papp 1 (PAMPA) ([3]; PAMPA, pH 7.4): 2.28 ×10⁻⁶ cm/s; Papp 3 (PAMPA) ([3]; pH 7.4, replicate 3): 2.16 ×10⁻⁶ cm/s; Percent inhibition of CYP3A4 (CYP3A4): ~ 42%; Percent inhibition of CYP2C9 (CYP2C9): 46%; Clearance (intrinsic clearance, Clint) (Microsome stability; human, microsomes): 35.6 µL/min/mg; Half-life (Microsome stability; human, microsomes): 29.6 min |
